Tested on: Proteasome chymotrypsin-like (CT-L) activity
Assay: Proteasome CT-L activity in blood and tissues after i.v. dosing (FIG. 3)
Assay type: in vivo, mice (Balb/c)
Details: i.v. bolus; blood, adrenal gland, heart and liver, in mice
Procedure: Carfilzomib standard was formulated in an aqueous solution of 10% (w/v)sulfobutylether-β-cyclodextrin and 10 mmol/L sodium citrate (pH 3.5) for administration (5 mg/kg). At selected time points after i.v. drug administration, tissue samples (adrenal, heart, liver and bone marrow) were collected. Whole blood was collected by cardiac puncture into tubes containing sodium heparin.
Approximately 0.4 mL of whole blood is collected using either EDTA microcentrifuged tubes. Samples are immediately placed on ice and spun at maximum speed for 2 minutes in a microcentrifuge at room temperature (RT). Cell pellets are stored on wet ice. Whole blood cell pellets are resuspended in 1 ml of phosphate buffered saline (PBS) and centrifuged at max speed at 4° C. Supernatants are removed and the pellets are washed a second time with PBS. Samples are resuspended in 2 volumes of lysis buffer (20 mM Tris, pH 8.0, 5 mM EDTA) then frozen and stored at −80° C. until analysis. […]
All samples were thawed on ice. […] These samples were then ready for assaying, or they may be frozen at −80° C. […] These samples were then ready for assaying, or they may be frozen at −80° C. […] The protein concentration for each sample was measured by Bradford assay. Proteasome chymotrypsin-like (CT-L) activity was quantitated by monitoring the release of free AMC from the fluorogenic peptide Suc-Leu-Leu-Val-Tyr-AMC (BostonBiochem).

With “4-(4-Acetoxy-3-((1-(PEG20K-4-Arm)-1H-1,2,3-triazol-4-yl)methoxy)benzyl)-4-((4S,7S,10S,13S)-10-benzyl-7-isobutyl-15-methyl-13-((R)-2-methyloxirane-2-carbonyl)-2,5,8,11-tetraoxo-4-phenethyl-3,6,9,12-tetraazahexadecyl)morpholin-4-ium methanesulfonate [Example 1]” the “CT-L activity versus standard carfilzomib” value was “comparable”.

Reference: US10517954B2, “Pegylated carfilzomib compounds” (AMGEN INC., priority 2016, dated 2019)
